Common to all, as to assay: drug sensitivity score (DSS) from 5-dose viability curve (DSS (area-based score, 0 = no response)); higher = more sensitive (stronger viability inhibition); extreme values may be limits of the assay
In assay [1] the test system is MDCK wild-type - doxycycline. The conditions noted are these: doxycycline: none; 72 h. The gist of the method: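 For 72 h at 37 °C, parental MDCK cells (no doxycycline, 2000 cells/well) were incubated on 384-well plates pre-spotted with 528 oncology drugs at five doses from 1 to 10,000 nM. CellTiter-Glo luminescence served as the viability readout, scaled per plate between vehicle and positive controls. The Breeze pipeline then fitted dose-response curves to yield drug sensitivity scores.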

The subject of assay [2] is MDCK wild-type + doxycycline. The conditions noted are these: doxycycline: 10 ng/mL; 72 h. A digest of the protocol: (§1)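 After 72 h at 37 °C on 384-well plates pre-spotted with 528 oncology drugs at five doses (1-10,000 nM), parental and doxycycline-inducible MDCK cells were assessed; both lines had been given 10 ng/mL doxycycline in the medium before seeding at 2000 cells/well. Viability was taken from CellTiter-Glo luminescence scaled per plate to vehicle and positive controls, and drug sensitivity scores were derived from dose-response fits in the Breeze pipeline.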

The test system of assay [3] is MDCK p60AmotL2-inducible + doxycycline (p60AmotL2 expressing). The following applies: doxycycline: 10 ng/mL; 72 h. A digest of the protocol:
as §1

This note sets out measurements from the supplement of paper PMC11003180.

Take `Cc1sc2c(c1C)C(c1ccc(Cl)cc1)=N[C@@H](CC(=O)Nc1ccc(OCCOCCOCCOCCNc3cccc4c3C(=O)N(C3CCC(=O)NC3=O)C4=O)cc1)c1nnc(C)n1-2` (stereo partly specified) [ARV-825]: the results for the drug sensitivity score in assay [1], in assay [2] and in assay [3] were 5.5, 7.3 and 11.2, respectively.
For `CC[C@@H]1CN(C(=O)NCC(F)(F)F)C[C@@H]1c1cnc2cnc3[nH]ccc3n12` [Upadacitinib] the same measures were 0, 0 and 0.
As for `Cc1c(Cn2c(C)nc3c(C(=O)O)cc(N4CCOCC4)cc32)cccc1C(F)(F)F`, the drug sensitivity score in assay [1], in assay [2] and in assay [3] was 0 each time.
Consider `Nc1ncn([C@@H]2O[C@H](CO)[C@@H](O)[C@H]2O)c(=O)n1` [Azacitidine], for which the figures for the drug sensitivity score in assay [1], in assay [2] and in assay [3] were 0.3, 0.6 and 0.7, respectively.
With `C[C@@H]1CN(C(=O)c2ccc(NC(=O)c3cc(O[C@H](C)c4c(Cl)ccc(F)c4Cl)c(N)nn3)cc2)C[C@H](C)N1` [Ensartinib], the drug sensitivity score in assay [1] came to 0; in assay [2] it was 0; in assay [3], 1.4.
Regarding `NC(=O)/C(=C/n1cnc(-c2cc(C(F)(F)F)cc(C(F)(F)F)c2)n1)c1cncnc1` [Eltanexor], the drug sensitivity score in assay [1] turned out to be 19.6; in assay [2], 21.8; in assay [3], 19.9.
For `CN(C)C[C@@H]1CCn2cc(c3ccccc32)C2=C(C(=O)NC2=O)c2cn(c3ccccc23)CCO1` [Ruboxistaurin] the same measures were 5.8, 5.5 and 5.8.
For `Cc1cc([C@@H](C)Nc2ccccc2C(=O)O)c2nc(N3CCOCC3)cc(=O)n2c1` [AZD-6482] the same measures were 0, 0 and 0.
For `Cc1nc(C(=O)NCC(=O)O)c(O)c2ccc(Oc3ccccc3)cc12` [Roxadustat] the same measures were 0, 0 and 0.
With `CO[C@@H](C(=O)N1Cc2[nH]nc(NC(=O)c3ccc(N4CCN(C)CC4)cc3)c2C1)c1ccccc1` [Danusertib], the drug sensitivity score in assay [1] was 4.4; in assay [2], 5.6; in assay [3], 8.4.
For the compound `S=c1[nH]cnc2nc[nH]c12` [Mercaptopurine], the drug sensitivity score in assay [1] came to 2.1; in assay [2], 1.8; in assay [3], 1.6.
For the compound `CN[C@@H](C)C(=O)N[C@H]1CN(C(=O)CC(C)C)CC[C@H]2CC[C@@H](C(=O)NC(c3ccccc3)c3ccccc3)N2C1=O` [AT-406], the drug sensitivity score in assay [1] came out at 0; in assay [2] it was 0.1; in assay [3], 0.
As to `COC(=O)c1ccc2c(c1)[nH]c1ncnc(NCCCN3CCCCC3)c12` [UM729], the drug sensitivity score in assay [1] turned out to be 0; in assay [2] it was 0.9; in assay [3], 3.
For `Nc1nc(F)nc2c1ncn2[C@@H]1O[C@H](CO)[C@@H](O)[C@@H]1O` [Fludarabine] the same measures were 0, 0 and 0.
For `O=c1sn(-c2cccc3ccccc23)c(=O)n1Cc1ccccc1` [Tideglusib] the same measures were 0, 0 and 0.
For `COc1cc2ncnc(Nc3cccc(Cl)c3F)c2cc1OC(=O)N1CCN(C)C[C@H]1C` [AZD3759] the same measures were 0, 0 and 6.6.
As to `COc1ccc(S(=O)(=O)Nc2cccnc2Nc2ccc(O)cc2)cc1` [ABT-751], the drug sensitivity score in assay [1] was 15.3; in assay [2] it was 16.6; in assay [3], 16.
For `CN1CCN(c2ccc(C(=O)Nc3n[nH]c4ccc(Cc5cc(F)cc(F)c5)cc34)c(NC3CCOCC3)c2)CC1` [Entrectinib] the same measures were 0, 0 and 0.6.
For `O=C(Nc1cc(Oc2cc(F)c(NC(=O)C3(C(=O)Nc4ccc(F)cc4)CC3)cc2F)ccn1)C1CC1` [Altiratinib] the same measures were 0, 0 and 8.
For the compound `COc1cc2c(N3CCN(C(=O)Nc4ccc(OC(C)C)cc4)CC3)ncnc2cc1OCCCN1CCCCC1` [Tandutinib], the drug sensitivity score in assay [1], in assay [2] and in assay [3] was 0 each time.
Regarding `CC[C@H](CO)Nc1nc(NCc2ccccc2)c2ncn(C(C)C)c2n1` [Seliciclib], the drug sensitivity score came to 0 in assay [1], 1.2 in assay [2] and 2.4 in assay [3].
For `c1cc(CN2CCCNCCNCCCNCC2)ccc1CN1CCCNCCNCCCNCC1` [Plerixafor] the same measures were 0, 0 and 0.1.
For `Cc1cc2c(C(=O)NC[C@H](C)c3ccccc3)c(O)c(O)cc2c(O)c1-c1c(C)cc2c(C(=O)NC[C@H](C)c3ccccc3)c(O)c(O)cc2c1O` [Sabutoclax] the same measures were 13.9, 19.3 and 23.
For `Cc1nc(Nc2n[nH]c3c2CN(C(=O)N[C@H](CN(C)C)c2ccccc2)C3(C)C)c2sccc2n1` the same measures were 12.4, 18 and 22.1.
Consider `N#Cc1ccc(C(c2ccc(C#N)cc2)n2cncn2)cc1` [Letrozole], for which the drug sensitivity score in assay [1], in assay [2] and in assay [3] was 0 throughout.
Take `C=CC(=O)Nc1cc2c(Nc3ccc(F)c(Cl)c3)ncnc2cc1OCCCN1CCOCC1` [Canertinib]: the drug sensitivity score worked out at 7.9 in assay [1], 9.6 in assay [2] and 15.2 in assay [3].
For `S=C(NCc1ccc2c(c1)OCO2)N1CCN(c2ncnc3c2oc2ccccc23)CC1` [Amuvatinib] the same measures were 2.3, 3.1 and 6.
For `Nc1ncnc2c1nc(N)n2[C@@H]1O[C@H](CO)[C@@H](O)[C@H]1O` [8-amino-adenosine] the same measures were 18.2, 18.2 and 19.8.
In the case of `C[C@H]1CN(C2COC2)CCN1c1ccc(Nc2cc(-c3ccnc(N4CCn5c(cc6c5CC(C)(C)C6)C4=O)c3CO)cn(C)c2=O)nc1` [GDC-0853], the drug sensitivity score in assay [1], in assay [2] and in assay [3] was 0 throughout.
Regarding `C[C@]1(c2nc3c(C(N)=O)cccc3[nH]2)CCCN1` [Veliparib], the drug sensitivity score in assay [1], in assay [2] and in assay [3] was 0 in each case.
For the compound `Cc1cn(-c2cc(NC(=O)c3ccc(C)c(Nc4nccc(-c5cnccn5)n4)c3)cc(C(F)(F)F)c2)cn1` [Radotinib], the drug sensitivity score in assay [1], in assay [2] and in assay [3] was 0 each time.
Consider `Nc1cc(F)ccc1NC(=O)/C=C/c1cnn(C/C=C/c2ccccc2)c1` [RGFP966], for which the drug sensitivity score in assay [1] worked out at 0; in assay [2], 0; in assay [3], 1.
For `Cc1nc(Nc2ncc(C(=O)Nc3c(C)cccc3Cl)s2)cc(N2CCN(CCO)CC2)n1` [Dasatinib], the figures for the drug sensitivity score in assay [1], in assay [2] and in assay [3] were 4.9, 1.8 and 13.7, respectively.
For `CO[C@H]1C[C@@H]2CC[C@@H](C)[C@@](O)(O2)C(=O)C(=O)N2CCCC[C@H]2C(=O)O[C@H]([C@H](C)C[C@@H]2CC[C@@H](OC(=O)C(C)(CO)CO)[C@H](OC)C2)CC(=O)[C@H](C)/C=C(\C)[C@@H](O)[C@@H](OC)C(=O)[C@H](C)C[C@H](C)/C=C/C=C/C=C/1C` [Temsirolimus] the same measures were 0, 2.3 and 10.
For `CCC(C)n1ncn(-c2ccc(N3CCN(c4ccc(OCC5COC(Cn6cncn6)(c6ccc(Cl)cc6Cl)O5)cc4)CC3)cc2)c1=O` (stereo unspecified) [Itraconazole] the same measures were 7.9, 7.7 and 10.7.
For `CCCS(=O)(=O)Nc1ccc(F)c(C(=O)c2c[nH]c3ncc(-c4ccc(Cl)cc4)cc23)c1F` [Vemurafenib] the same measures were 0, 0 and 0.
On to `CO[C@@H](C)Cn1c(=O)n(C)c2cnc3ccc(-c4cncc(C(C)(C)O)c4)cc3c21`, for which the drug sensitivity score in assay [1] amounted to 8.2; in assay [2], 9.1; in assay [3] it was 12.8.
